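Assay format: 96-well plates, 48-hour exposure. Here, GI50 denotes the concentration required for 50% inhibition of growth.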 Active and inactive are the calls of the source. No stated cut-off is given here; in the data, active = GI50 up to about 1.1 µM and inactive = higher.
How the values were obtained:
Test in all cases: inhibition of tumour cell growth, NCI panel, 48 h
[1] = system: SF-295
[2] = system: SK-OV-3
[3] = system: SF-539
[4] = system: 786-0
[5] = system: SK-MEL-5
[6] = system: MDA-N
[7] = system: CCRF-CEM
[8] = system: UO-31
[9] = system: Hs-578T
[10] = system: MDA-MB-435
[11] = system: OVCAR-3
[12] = system: ACHN
[13] = system: MDA-MB-231
[14] = system: TK-10
[15] = system: CAKI-1
[16] = system: OVCAR-5
[17] = system: SW-620
[18] = system: LOX IMVI
[19] = system: RXF 393
[20] = system: MCF7
[21] = system: HOP-62
[22] = system: Malme-3M
[23] = system: NCI-H460
[24] = system: SF-268
[25] = system: HCC 2998
[26] = system: U-251
[27] = system: A549
[28] = system: KM12
[29] = system: DU-145
[30] = system: NCI/ADR-RES
[31] = system: K562
[32] = system: RPMI-8226
[33] = system: M14
[34] = system: HT-29
[35] = system: SN12C
[36] = system: A498
[37] = system: OVCAR-8
[38] = system: NCI-H226
[39] = system: SK-MEL-28
[40] = system: SK-MEL-2
[41] = system: SNB-19
[42] = system: NCI-H23
[43] = system: HCT-15
[44] = system: COLO 205
[45] = system: PC-3
[46] = system: HCT-116
[47] = system: OVCAR-4
[48] = system: HOP-92
[49] = system: UACC-62
[50] = system: EKVX
[51] = system: T47D
[52] = system: MOLT-4
[53] = system: UACC-257
[54] = system: NCI-H522
[55] = system: BT-549
[56] = system: IGROV-1
[57] = system: HL-60
[58] = system: SNB-75
[59] = system: SR

Measured: GI50

COc1cc2c3c4[n+](cc2c(OC)c1OC)CCC4CCC3 (centres undefined)
inactive: [1] > 100 µM | [2] > 100 µM | [3] > 100 µM | [4] > 100 µM | [5] 21.6 µM | [6] > 100 µM | [7] > 62.1 µM | [8] > 100 µM | [9] > 100 µM | [10] > 100 µM | [11] 46.9 µM | [12] > 100 µM | [13] > 100 µM | [14] > 100 µM | [15] > 100 µM | [16] > 100 µM | [17] > 100 µM | [18] > 100 µM | [19] > 84.3 µM | [20] 75.2 µM | [21] > 100 µM | [22] 20.4 µM | [23] > 100 µM | [24] > 100 µM | [25] > 93.1 µM | [26] 53.8 µM | [27] > 100 µM | [28] 47.4 µM | [29] > 100 µM | [30] > 100 µM | [31] 17.9 µM | [32] 40.4 µM | [33] > 100 µM | [34] > 100 µM | [35] > 100 µM | [36] > 100 µM | [37] > 100 µM | [38] > 100 µM | [39] > 100 µM | [40] > 95.1 µM | [41] 48.9 µM | [42] 98.9 µM | [44] 34.7 µM | [45] > 100 µM | [46] > 100 µM | [47] > 100 µM | [48] > 100 µM | [49] > 100 µM | [50] > 100 µM | [51] 24.9 µM | [52] > 100 µM | [53] 57.3 µM | [54] 51.3 µM | [55] > 100 µM | [56] > 100 µM
> 100 µM: [43]

N#Cc1cc(Sc2ccc(N)c(C#N)c2)ccc1N
inactive: [1] 17.6 µM | [2] 23.1 µM | [3] 11.1 µM | [4] 17.6 µM | [5] 15.3 µM | [6] 4.03 µM | [7] 9.64 µM | [8] 17.7 µM | [9] 12.6 µM | [10] 2.55 µM | [11] 34.7 µM | [12] 31.2 µM | [13] 40.7 µM | [14] 65.6 µM | [16] 29.3 µM | [17] 13.3 µM | [18] 15.8 µM | [19] 29.4 µM | [20] 15.8 µM | [21] 41.9 µM | [22] 2.8 µM | [23] 15.5 µM | [24] 18 µM | [57] 1.87 µM | [26] 29.3 µM | [27] 29.9 µM | [28] 8.63 µM | [29] 24.9 µM | [30] 13.3 µM | [31] 3.44 µM | [32] 12.8 µM | [33] 11.9 µM | [34] 13.6 µM | [35] 48.4 µM | [36] 43.8 µM | [37] 20.4 µM | [38] 19.6 µM | [39] 55.2 µM | [40] 30.3 µM | [41] 14.8 µM | [44] 8.59 µM | [45] 22.8 µM | [46] 12.1 µM | [47] 20.4 µM | [48] 21.7 µM | [49] 14.8 µM | [50] 16 µM | [51] 29 µM | [52] 25.4 µM | [53] 26.9 µM | [55] 19 µM | [56] 25.1 µM
9.51 µM: [43]

O=C(O)CN1C(=O)C(Cc2ccc(O)cc2)N=C(c2cccc(O)c2)c2ccccc21 (centres undefined)
inactive: [1] > 100 µM | [2] > 100 µM | [3] > 100 µM | [4] > 100 µM | [6] 11.5 µM | [8] > 100 µM | [9] > 100 µM | [10] > 100 µM | [11] > 100 µM | [12] > 100 µM | [13] > 100 µM | [14] > 100 µM | [58] 40 µM | [16] > 100 µM | [17] > 100 µM | [18] > 100 µM | [20] > 100 µM | [21] > 100 µM | [22] > 100 µM | [23] > 100 µM | [24] > 100 µM | [57] > 100 µM | [26] > 100 µM | [27] > 100 µM | [28] > 100 µM | [29] > 100 µM | [31] > 100 µM | [32] > 100 µM | [33] > 100 µM | [59] > 100 µM | [34] > 100 µM | [35] 19 µM | [36] 12 µM | [37] > 100 µM | [38] > 100 µM | [39] > 100 µM | [40] > 100 µM | [41] > 100 µM | [45] > 100 µM | [46] > 100 µM | [47] > 100 µM | [48] > 100 µM | [49] > 100 µM | [50] > 100 µM | [51] > 100 µM | [52] > 100 µM | [53] > 100 µM | [54] 80.4 µM | [55] > 100 µM | [56] > 100 µM
> 100 µM: [43]

CC1=C(C)C(=O)C(C2=C(C3=CC(=O)C(C)=C(C)C3=O)C(=O)C(C)=C(C)C2=O)=CC1=O
active: [48] 0.61 µM | [52] 0.697 µM
0.294 µM: [43]
inactive: [1] 17.7 µM | [2] 17.4 µM | [3] 2.17 µM | [4] 5.06 µM | [5] 2.15 µM | [6] 2.65 µM | [7] > 100 µM | [8] 4.59 µM | [9] 16.1 µM | [10] 3.52 µM | [12] 5.79 µM | [13] 2.07 µM | [14] 12 µM | [58] 16.6 µM | [15] 3.44 µM | [16] 7.85 µM | [17] 3.32 µM | [18] 2.57 µM | [19] 1.83 µM | [20] 2.67 µM | [21] 18.7 µM | [22] 3.1 µM | [23] 14.9 µM | [24] 12.6 µM | [57] > 100 µM | [25] 15.2 µM | [26] 3.68 µM | [27] 30.3 µM | [28] 8.51 µM | [29] 14 µM | [30] 1.13 µM | [33] 10 µM | [34] 3.01 µM | [35] 13.9 µM | [36] 14.3 µM | [37] 4.41 µM | [38] 11 µM | [39] 6.87 µM | [40] 14.5 µM | [41] > 56.8 µM | [42] 14.7 µM | [44] 2.89 µM | [45] 4.62 µM | [46] 5.45 µM | [47] 1.79 µM | [49] 10.5 µM | [50] 20.8 µM | [51] 2.75 µM | [53] 13.3 µM | [54] 1.95 µM | [55] 10 µM | [56] 10.9 µM

CCC1C(c2cc(OC)c(OC)c(OC)c2)c2cc3c(cc2OC1N1CCOCC1)OCO3 (centres undefined)
inactive: [1] 2.79 µM | [2] 4.88 µM | [4] 11.6 µM | [5] 1.44 µM | [8] 3.88 µM | [9] 3.02 µM | [11] 4.31 µM | [12] 3.99 µM | [13] 15.8 µM | [58] 9.4 µM | [16] 2.29 µM | [17] 1.98 µM | [18] 2.48 µM | [20] 2.84 µM | [21] 4.01 µM | [22] 13.2 µM | [23] 3.4 µM | [24] 10.5 µM | [27] 4.36 µM | [29] 5.33 µM | [30] 5.61 µM | [33] 4.12 µM | [59] 3.18 µM | [34] 2.73 µM | [35] 8.15 µM | [37] 3.93 µM | [38] 7.98 µM | [40] 14.7 µM | [41] 4.14 µM | [44] 4.22 µM | [45] 2.02 µM | [46] 3.68 µM | [47] 2.12 µM | [48] 10.8 µM | [49] 6.08 µM | [50] 14.2 µM | [51] 10.5 µM | [52] 1.88 µM | [53] 14.6 µM | [54] 4.95 µM | [55] 2.99 µM | [56] 3.9 µM
3.08 µM: [43]
active: [6] 0.977 µM

Reference: ChEMBL document CHEMBL1201862, “PubChem BioAssay data set” (2004)
